How the values were obtained:
Type in all cases: biochemical
PDGFR-β kinase = target: T1, PDGFR-β kinase (Homo sapiens, UniProt P09619); experiment: PDGFR-β kinase assay (33P incorporation into Poly(Glu-Tyr)); conditions: 500 nM test compound
T1 construct: recombinant N-terminal 6×His-tagged PDGFR-β kinase domain construct expressed by baculovirus; 6xHis (N); made in house
Protocol: Inhibition of PDGFR-β kinase activity by compounds disclosed herein was quantified by measuring the amount of [^33P] incorporated into the substrate in the presence of a test compound. Briefly, a reaction mixture of 25 μL final volume containing 55 ng of PDGFR-β kinase (obtained by purifying recombinant N-terminal 6×His-tagged PDGFR-β kinase domain construct expressed by baculovirus), 2.5 μg of the substrate (Poly (Glu-Tyr, 4:1, Sigma)), kinase reaction buffer (20 mM MOPS pH 7.0, 1 mM EDTA, 5% glycerol, 0.01% Brij-35, 0.1% β-mercaptoethanol, 1 mg/mL BSA, 2 mM MnCl2, 30 μM ATP, 0.1 μCi per well [^33P]-γ-ATP (2,500-3,000 Ci/mmol)), and a test compound (500 nM, diluted with 4% DMSO) or DMSO (as the control) was incubated at 30° C. for 30 minutes. The reaction was stopped by adding 5 μL of 3% phosphoric acid solution. The resultant reaction solution was then harvested onto a filter plate (UniFilter-96 GF/B, PerkinElmer), washed 20 times for 5 min with d.d. H2O, and followed by the addition of 30 μL of MicroScint™-20 Cocktail (PerkinElmer). The plate was then sealed and counted using a TopCount scintillation detector (PerkinElmer). The percentage of inhibition rate of the test compound was calculated by dividing the retained radioactivity of the test sample with the retained radioactivity of the control sample and shown in Table 3.

Aurora A kinase = target: T2, Aurora A kinase (Homo sapiens, UniProt O14965); experiment: Aurora A kinase assay ([γ-33P]ATP, CHOCKtide substrate); conditions: 1.0 μM test compound
T2 construct: purchased Upstate
T2 sequence (O14965 1-403): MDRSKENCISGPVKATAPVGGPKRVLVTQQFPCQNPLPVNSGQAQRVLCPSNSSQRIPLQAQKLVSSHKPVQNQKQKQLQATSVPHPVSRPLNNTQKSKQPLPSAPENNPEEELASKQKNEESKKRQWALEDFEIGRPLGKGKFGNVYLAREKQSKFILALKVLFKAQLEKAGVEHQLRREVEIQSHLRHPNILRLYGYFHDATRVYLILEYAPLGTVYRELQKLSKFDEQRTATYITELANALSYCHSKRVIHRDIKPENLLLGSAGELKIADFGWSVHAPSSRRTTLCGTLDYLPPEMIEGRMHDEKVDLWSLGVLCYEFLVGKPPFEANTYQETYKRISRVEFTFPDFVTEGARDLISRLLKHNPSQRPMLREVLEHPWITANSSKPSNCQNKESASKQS
Summary of the method: (§1)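 Recombinant Aurora A (1 ng) or Aurora B (2.5 ng) incubated with test compound, CHOCKtide (1 μg) and [γ-33P]ATP/ATP at 10 μM (Aurora A) or 40 μM (Aurora B), 30 min at 33 °C. Stopped with phosphoric acid; filter-bound 33P counted; IC50 = half-maximal inhibition.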

Flt3 kinase = target: T3, Flt3 kinase (Homo sapiens, UniProt P36888); experiment: Flt3 kinase assay (33P incorporation into Poly(Glu-Tyr)); conditions: 100 nM test compound; read-out: Inhibition at 100 nM (%) Flt-3
T3 construct: recombinant N-terminal 6×His-tagged Flt3 kinase domain construct expressed from baculovirus; 6xHis (N); made in house
T3 sequence (P36888 610-943 limits assumed): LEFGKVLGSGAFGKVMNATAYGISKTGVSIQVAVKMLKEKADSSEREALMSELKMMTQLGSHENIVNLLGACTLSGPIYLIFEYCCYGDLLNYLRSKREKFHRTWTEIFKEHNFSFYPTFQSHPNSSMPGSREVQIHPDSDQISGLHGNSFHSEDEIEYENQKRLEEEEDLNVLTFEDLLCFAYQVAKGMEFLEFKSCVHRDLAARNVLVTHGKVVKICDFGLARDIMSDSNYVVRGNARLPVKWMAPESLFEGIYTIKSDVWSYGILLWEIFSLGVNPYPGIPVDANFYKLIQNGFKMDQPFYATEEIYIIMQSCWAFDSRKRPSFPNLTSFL
Protocol: Inhibition of Flt3 kinase activity by compounds disclosed herein was quantified by measuring the amount of [^33P] incorporated into the substrate in the presence of a test compound. Briefly, a reaction mixture of 25 μL final volume containing 5 ng of Flt3 kinase (obtained by purifying recombinant N-terminal 6×His-tagged Flt3 kinase domain construct expressed from baculovirus), 5 μg of the substrate (Poly (Glu-Tyr, 4:1, Sigma)), kinase reaction buffer (20 mM MOPS pH 7.0, 1 mM EDTA, 5% glycerol, 0.01% Brij-35, 0.1% β-mercaptoethanol, 1 mg/mL BSA, 100 μM ATP, 0.1 μCi per well [^33P]-γ-ATP (2,500-3,000 Ci/mmol)), and a test compound (100 nM, diluted with 4% DMSO) or DMSO (as the control) was incubated at 30° C. for 30 minutes. The reaction was stopped by adding 5 μL of 3% phosphoric acid solution. The resultant reaction solution was then harvested onto a filter plate (UniFilter-96 GF/B, PerkinElmer), washed 20 times for 5 min with d.d. H2O, and followed by the addition of 30 μL of MicroScint™-20 Cocktail (PerkinElmer). The plate was then sealed and counted using a TopCount scintillation detector (PerkinElmer). The percentage of inhibition rate of the test compound was calculated by dividing the retained radioactivity of the test sample with the retained radioactivity of the control sample and shown in Table 3.

VEGFR2 kinase = target: T4, VEGFR2 kinase (Homo sapiens, UniProt P35968); experiment: VEGFR2 kinase assay (33P incorporation into Poly(Glu-Tyr)); conditions: 500 nM test compound; read-out: Inhibition at 500 nM (%) VEGFr-2
T4 construct: recombinant N-terminal 6×His-tagged VEGFR2 kinase domain construct expressed by baculovirus; 6xHis (N); made in house
Protocol: Inhibition of VEGFR2 kinase activity by compounds disclosed herein was quantified by measuring the amount of [^33P] incorporated into the substrate in the presence of a test compound. Specifically, a reaction mixture with a final volume of 25 μL and containing 6.25 ng of VEGFR2 kinase (obtained by purifying recombinant N-terminal 6×His-tagged VEGFR2 kinase domain construct expressed by baculovirus), 5 μg of substrate (Poly (Glu-Tyr, 4:1, Sigma)), kinase reaction buffer (20 mM MOPS pH 7.0, 1 mM EDTA, 5% glycerol, 0.01% Brij-35, 0.1% β-mercaptoethanol, 1 mg/mL BSA, 100 μM ATP, 0.1 μCi per well [^33P]-γ-ATP (2,500-3,000 Ci/mmol), and 500 nM test compound (final concentration of DMSO was 4%) or 4% DMSO alone (as the control sample), was incubated at 30° C. for 30 minutes. The reaction was then stopped by adding 5 μL of 3% phosphoric acid solution. The resultant solution was transferred to and harvested by a filter plate (UniFilter-96 GF/B, PerkinElmer). The filter plate was then washed 20 times with d.d. H2O for 5 min followed by the addition of 30 μL of MicroScint™-20 Cocktail (PerkinElmer). After the plate was sealed, the retained radioactivity on the filter was counted using a TopCount scintillation detector (PerkinElmer). The percentage of inhibition rate of the test compound was calculated by dividing the retained radioactivity of the test sample with the retained radioactivity of the control sample and shown in Table 3.

Aurora B kinase = target: T5, Aurora B kinase (Homo sapiens, UniProt Q96GD4); experiment: Aurora B kinase assay ([γ-33P]ATP, CHOCKtide substrate); conditions: 1.0 μM test compound
T5 construct: purchased Cell signaling
Summary of the method: as §1

c-Met kinase = target: T6, c-Met kinase (Homo sapiens, UniProt P08581); experiment: c-Met kinase assay (33P incorporation into Poly(Glu-Tyr)); conditions: 500 nM test compound
T6 construct: recombinant N-terminal 6×His-tagged c-Met kinase domain construct expressed from baculovirus; 6xHis (N); made in house
Summary of the method: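 Recombinant N-terminal 6×His-tagged c-Met kinase domain (baculovirus-expressed, 5 ng) acted on Poly(Glu-Tyr) 4:1 with 100 μM ATP plus [33P]-γ-ATP in MOPS pH 7.0 buffer, 30 min at 30° C. Compound was at 500 nM. Filter-retained radioactivity was compared with the DMSO control to give percent inhibition.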

T5 sequence (Q96GD4 whole entry): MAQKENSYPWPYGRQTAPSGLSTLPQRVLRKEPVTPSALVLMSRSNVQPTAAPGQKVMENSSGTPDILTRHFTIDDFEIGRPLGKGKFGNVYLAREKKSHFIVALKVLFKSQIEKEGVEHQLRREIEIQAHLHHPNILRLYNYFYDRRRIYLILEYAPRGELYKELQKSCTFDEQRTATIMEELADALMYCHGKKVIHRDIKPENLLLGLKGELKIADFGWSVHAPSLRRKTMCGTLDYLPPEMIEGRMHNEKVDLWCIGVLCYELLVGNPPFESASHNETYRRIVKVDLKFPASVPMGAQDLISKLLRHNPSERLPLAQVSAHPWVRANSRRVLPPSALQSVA
T6 sequence (P08581 1078-1345 limits assumed): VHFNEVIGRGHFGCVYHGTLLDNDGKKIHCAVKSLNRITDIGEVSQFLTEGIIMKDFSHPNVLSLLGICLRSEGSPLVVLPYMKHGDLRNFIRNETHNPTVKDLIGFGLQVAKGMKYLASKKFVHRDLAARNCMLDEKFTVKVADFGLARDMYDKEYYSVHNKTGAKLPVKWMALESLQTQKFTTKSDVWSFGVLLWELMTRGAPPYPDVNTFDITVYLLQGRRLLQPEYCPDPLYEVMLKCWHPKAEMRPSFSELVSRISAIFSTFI
T4 sequence (P35968 834-1162 limits assumed): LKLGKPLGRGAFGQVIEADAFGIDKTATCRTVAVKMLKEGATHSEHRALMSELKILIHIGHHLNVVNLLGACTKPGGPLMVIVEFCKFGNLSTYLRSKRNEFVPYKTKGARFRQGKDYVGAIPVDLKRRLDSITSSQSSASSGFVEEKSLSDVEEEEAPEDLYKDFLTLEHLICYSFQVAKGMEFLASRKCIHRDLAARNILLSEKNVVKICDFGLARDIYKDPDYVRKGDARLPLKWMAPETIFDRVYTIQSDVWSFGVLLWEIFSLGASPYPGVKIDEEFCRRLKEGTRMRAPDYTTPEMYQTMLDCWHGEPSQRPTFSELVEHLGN
T1 sequence (P09619 600-962 limits assumed): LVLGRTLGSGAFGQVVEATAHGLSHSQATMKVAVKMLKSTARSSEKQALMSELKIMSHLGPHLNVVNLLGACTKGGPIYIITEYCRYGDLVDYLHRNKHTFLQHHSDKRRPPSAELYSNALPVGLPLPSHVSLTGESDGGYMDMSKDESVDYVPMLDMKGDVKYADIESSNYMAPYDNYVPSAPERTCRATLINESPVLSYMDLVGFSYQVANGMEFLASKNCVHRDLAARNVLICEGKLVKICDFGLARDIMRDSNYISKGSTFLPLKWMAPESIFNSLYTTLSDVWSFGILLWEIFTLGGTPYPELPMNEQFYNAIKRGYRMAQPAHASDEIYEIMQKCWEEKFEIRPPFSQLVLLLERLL

inhibition at 0.5 µM (PDGFR-β kinase) [%]	inhibition at 1 µM (Aurora A kinase) [%]	inhibition at 0.1 µM (Flt3 kinase) [%]	inhibition at 0.5 µM (VEGFR2 kinase) [%]	inhibition at 1 µM (Aurora B kinase) [%]	inhibition at 0.5 µM (c-Met kinase) [%]	Compound
7.9	27.1	11.8	44.8	2.4	–	O=C(O)CCc1c(/C=C2\C(=O)Nc3ccc(NC(=O)c4ccc([N+](=O)[O-])cc4)cc32)[nH]c2c1C(=O)CCC2 [DCB-70142, (Z)-3-(2-((5-(4-nitrobenzamido)-2-oxoindolin-3-ylidene)methyl)-4-oxo-4,5,6,7-tetrahydro-1H-indol-3-yl)propanoic acid]
–	8.9	17.1	–	18	0.2	CCOC(=O)CCc1c(/C=C2\C(=O)Nc3cc(-c4ccc(O)cc4)ccc32)[nH]c2c1C(=O)CCCC2 [DCB-70150, (Z)-ethyl 3-(2-((6-(4-hydroxyphenyl)-2-oxoindolin-3-ylidene)methyl)-4-oxo-1,4,5,6,7,8-hexahydrocyclohepta[b]pyrrol-3-yl)propanoate]
–	37.2	42.2	–	23.6	-6.5	O=C(O)CCc1c(/C=C2\C(=O)Nc3cc(-c4ccc(O)cc4)ccc32)[nH]c2c1C(=O)CCCC2 [DCB-70151, (Z)-3-(2-((6-(4-hydroxyphenyl)-2-oxoindolin-3-ylidene)methyl)-4-oxo-1,4,5,6,7,8-hexahydrocyclohepta[b]pyrrol-3-yl)propanoic acid]
